What was measured:
Type in all cases: in vivo
[1] = tested on: Monocotyledonous and dicotyledonous weed seeds and main crop seeds; experiment: Post-emergence test experiment (Table 3, 1000 g a.i./ha); settings: 3 weeks in greenhouse, fresh weight inhibition
Description: (§1) The above described growth inhibition rate is fresh weight inhibition rate.
(§2) Post-emergence test experiment: Monocotyledonous and dicotyledonous weed seeds and main crop seeds (i. e. wheat, corn, rice, soybean, cotton, oilseed, millet and sorghum.) were put into a plastic pot loaded with soil. Then covered with 0.5-2 cm soil, the seeds were allowed to grow in good greenhouse environment. The test plants were treated at 2-3 leaf stage 2 weeks after sowing. The test compounds of the invention were dissolved with acetone respectively, then added with tween-80, and using 1.5 liters per hectare of an emulsible concentrate of methyl oleate as a synergist, and diluted by certain amount of water to certain concentration. The solution was sprayed to the plants with a sprayer. Then the plants were cultured for 3 weeks in the greenhouse, and the experiment result of weed controlling effect was listed in tables 3-4.

Cyperus iria = experiment: Post-emergence test experiment, weed control; settings: post-emergence spray, 3 weeks in greenhouse; for Activity level (fresh weight growth inhibition rate), Cyperus iria: 600 g a.i./ha plus water 450 kg/ha
Description: as §1, §2

Indica rice = experiment: Post-emergence test experiment, crop selectivity; settings: post-emergence spray, 3 weeks in greenhouse
Description: as §1, §2

Japonica rice = experiment: Post-emergence test experiment, crop selectivity; settings: for Activity level (fresh weight growth inhibition rate), Japonica rice: post-emergence spray, 3 weeks in greenhouse
Description: as §1, §2

[2] = 600 g a.i./ha plus water 450 kg/ha

| SMILES | Activity level (growth inhibition rate) Digitaria sanguinalis [1] | Activity level (growth inhibition rate) Echinochloa crusgalli [1] | Activity level (growth inhibition rate) Galium spurium [1] | Activity level (growth inhibition rate) Leptochloa chinensis [1] | Activity level (growth inhibition rate) Monochoria Vaginalis [1] | Activity level (growth inhibition rate) Murdannia triquetra [1] | Activity level (growth inhibition rate) Setaria viridis [1] | Activity level (fresh weight growth inhibition rate), Cyperus iria (Cyperus iria) | Activity level (fresh weight growth inhibition rate), Indica rice (Indica rice; [2]) | Activity level (fresh weight growth inhibition rate), Japonica rice (Japonica rice; [2]) | inhibition at 300 g/ha (Cyperus iria; Cyperus iria, 504 h, 300 g a.i./ha, read-out: Activity level (fresh weight growth inhibition rate), Cyperus iria) [%] | Activity level (fresh weight growth inhibition rate), Indica rice (Indica rice; 300 g a.i./ha) | Activity level (fresh weight growth inhibition rate), Japonica rice (Japonica rice; 300 g a.i./ha) | Selectivity to / inhibition of rice (in words) (Japonica rice; post-emergence, regardless of japonica or indica rice) |
| --- | --- | --- | --- | --- | --- | --- | --- | --- | --- | --- | --- | --- | --- | --- |
| CCCC(Cl)=NOC(=O)C(C)Oc1nc(F)c(Cl)c(N)c1Cl (centres unmarked) [Compound 75] | 5 (Level 5: the growth inhibition rate is greater than 85%) | 5 (Level 5: the growth inhibition rate is greater than 85%) | 5 (Level 5: the growth inhibition rate is greater than 85%) | 5 (Level 5: the growth inhibition rate is greater than 85%) | 5 (Level 5: the growth inhibition rate is greater than 85%) | 5 (Level 5: the growth inhibition rate is greater than 85%) | 5 (Level 5: the growth inhibition rate is greater than 85%) | 5 (Level 5: the growth inhibition rate is greater than 85%) | 0 (Level 0: the growth inhibition rate is less than 5%) | 0 (Level 0: the growth inhibition rate is less than 5%) | – | – | – | – |
| CC(Oc1nc(F)c(Cl)c(N)c1Cl)C(=O)ON=C(C#N)c1ccc(Cl)cc1 (centres unmarked) [Compound 87] | 5 (Level 5: the growth inhibition rate is greater than 85%) | 5 (Level 5: the growth inhibition rate is greater than 85%) | 5 (Level 5: the growth inhibition rate is greater than 85%) | 5 (Level 5: the growth inhibition rate is greater than 85%) | 5 (Level 5: the growth inhibition rate is greater than 85%) | 5 (Level 5: the growth inhibition rate is greater than 85%) | 5 (Level 5: the growth inhibition rate is greater than 85%) | 5 (Level 5: the growth inhibition rate is greater than 85%) | 0 (Level 0: the growth inhibition rate is less than 5%) | 0 (Level 0: the growth inhibition rate is less than 5%) | – | – | – | – |
| CC(Oc1nc(F)c(Cl)c(N)c1Cl)C(=O)ON=C(c1ccc(N(C)C)cc1)[N+](=O)[O-] (centres unmarked) [Compound 90] | 5 (Level 5: the growth inhibition rate is greater than 85%) | 5 (Level 5: the growth inhibition rate is greater than 85%) | 5 (Level 5: the growth inhibition rate is greater than 85%) | 5 (Level 5: the growth inhibition rate is greater than 85%) | 5 (Level 5: the growth inhibition rate is greater than 85%) | 5 (Level 5: the growth inhibition rate is greater than 85%) | 5 (Level 5: the growth inhibition rate is greater than 85%) | 5 (Level 5: the growth inhibition rate is greater than 85%) | 0 (Level 0: the growth inhibition rate is less than 5%) | 0 (Level 0: the growth inhibition rate is less than 5%) | – | – | – | – |
| CC=COc1ccc(C(=NOC(=O)C(C)Oc2nc(F)c(Cl)c(N)c2Cl)C(=O)OCC)cc1 (centres unmarked) [Compound 92] | 5 (Level 5: the growth inhibition rate is greater than 85%) | 5 (Level 5: the growth inhibition rate is greater than 85%) | 5 (Level 5: the growth inhibition rate is greater than 85%) | 5 (Level 5: the growth inhibition rate is greater than 85%) | 5 (Level 5: the growth inhibition rate is greater than 85%) | 5 (Level 5: the growth inhibition rate is greater than 85%) | 5 (Level 5: the growth inhibition rate is greater than 85%) | 5 (Level 5: the growth inhibition rate is greater than 85%) | 0 (Level 0: the growth inhibition rate is less than 5%) | 0 (Level 0: the growth inhibition rate is less than 5%) | – | – | – | – |
| CCC(=NOC(=O)C(C)Oc1nc(F)c(Cl)c(N)c1Cl)C(=O)NCc1ccc(C)cc1 (centres unmarked) [Compound 100] | 5 (Level 5: the growth inhibition rate is greater than 85%) | 5 (Level 5: the growth inhibition rate is greater than 85%) | 5 (Level 5: the growth inhibition rate is greater than 85%) | 5 (Level 5: the growth inhibition rate is greater than 85%) | 5 (Level 5: the growth inhibition rate is greater than 85%) | 5 (Level 5: the growth inhibition rate is greater than 85%) | 5 (Level 5: the growth inhibition rate is greater than 85%) | 5 (Level 5: the growth inhibition rate is greater than 85%) | 0 (Level 0: the growth inhibition rate is less than 5%) | 0 (Level 0: the growth inhibition rate is less than 5%) | – | – | – | – |
| C=COC(=O)C(=NOC(=O)C(C)Oc1nc(F)c(Cl)c(N)c1Cl)C(=O)N(C)c1ccccc1 (centres unmarked) [Compound 106] | 5 (Level 5: the growth inhibition rate is greater than 85%) | 5 (Level 5: the growth inhibition rate is greater than 85%) | 5 (Level 5: the growth inhibition rate is greater than 85%) | 5 (Level 5: the growth inhibition rate is greater than 85%) | 5 (Level 5: the growth inhibition rate is greater than 85%) | 5 (Level 5: the growth inhibition rate is greater than 85%) | 5 (Level 5: the growth inhibition rate is greater than 85%) | – | – | – | – | – | – | – |
| CC(Oc1nc(F)c(Cl)c(N)c1Cl)C(=O)ON=C1CCCCC1 (centres unmarked) [Compound 116] | 5 (Level 5: the growth inhibition rate is greater than 85%) | 5 (Level 5: the growth inhibition rate is greater than 85%) | 5 (Level 5: the growth inhibition rate is greater than 85%) | 5 (Level 5: the growth inhibition rate is greater than 85%) | 5 (Level 5: the growth inhibition rate is greater than 85%) | 5 (Level 5: the growth inhibition rate is greater than 85%) | 5 (Level 5: the growth inhibition rate is greater than 85%) | – | – | – | – | – | – | – |
| CC(Oc1nc(F)c(Cl)c(N)c1Cl)C(=O)O (centres unmarked) [Control compound A, reference compound] | – | – | – | – | – | – | – | 5 (Level 5: the growth inhibition rate is greater than 85%) | 3 (Level 3: the growth inhibition rate is equal to or greater than 40% and less than 60%) | 3 (Level 3: the growth inhibition rate is equal to or greater than 40% and less than 60%) | 60 to 85 | 3 (Level 3: the growth inhibition rate is equal to or greater than 40% and less than 60%) | 2 (Level 2: the growth inhibition rate is equal to or greater than 20% and less than 40%) | great inhibition to rice |

Reference: US12643859B2, “Pyridyl oxycarboxylic acid oxime derivative and preparation method therefor, weeding composition and application thereof” (Qingdao Kingagroot Chemical Compound Co., Ltd., priority 2018, dated 2026)
